Source: patent publication US20250281629A1, “COMPOSITIONS AND METHODS FOR ANTI-PHOSPHOCHOLINE ACTIVE IMMUNOTHERAPY” (Duke University, priority 2022, published 2025)
Where no end group is shown, it is not given here. C11H22NO6P = phosphorylcholine group attached via 2-methacryloyloxyethyl phosphorylcholine

Tests used:
occludin = assay: Immunofluorescence of colon tight junction protein occludin; format: in vivo, mouse; details: week 5; vs PBS control mice
Procedure: (§1) Immunofluorescence Imaging and Analysis. Immunofluorescence was conducted on sections from proximal colon samples frozen in OCT and sectioned. Slides were first thawed and outlined with a hydrophobic pen (ImmEdge Hydrophobic Barrier PAP Pen, Vector Labs, H-4000) then fixed with 4% paraformaldehyde for 10 min at room temperature. The slides were washed three times with wash buffer (1×PBS+100 mM CaCl2+100 mM MgCl) for 10 min at room temperature then incubated in a blocking solution containing 0.3% Triton X-100 and 10% normal donkey serum in 1×PBS+100 mM CaCl2+100 mM MgCl for 1 h at room temperature. The slides were then incubated in the primary antibodies (rat anti-ZO-1, clone R40.70, Fisher Scientific, MABT11; rabbit anti-occludin, clone EPR20992, Abcam, ab216327) diluted 1:100 in the blocking solution overnight at 4° C. The slides were washed three times with wash buffer for 10 min at room temperature. They were then incubated in the secondary antibodies (donkey anti-rat Alexa Fluor™ 568, Thermo Fisher, A78946; donkey anti-rabbit Alexa Fluor™ 647, Thermo Fisher, A31573) and nuclear marker DAPI diluted 1:500 in the blocking solution for 2 h at room temperature. […] The intensities of each marker were quantified using ImageJ and expressed as the integrated density of the fluorescent signal normalized to the area fraction of DAPI positive pixels. […]

ZO-1 = assay: Immunofluorescence of colon tight junction protein ZO-1; format: in vivo, mouse; details: week 5; vs PBS control mice
Procedure: as §1

C57BL/6 mice = assay: One cycle acute DSS-induced colitis, female and male mice; format: in vivo, mouse
Excerpt: DSS-Induced Colitis and Assessment. Before inducing colitis, mice from each treatment group were divided amongst the cages to avoid any cage-related disease effects. This excluded the PBS without DSS (healthy) control mice which remained in their own cage and received normal drinking water for the duration of the experiment. Colitis was induced by administering 2% (w/v) colitis-grade dextran sodium sulfate (MP Biomedicals, 160110) in drinking water. For determination of prophylactic immunization efficacy, mice were immunized i.p. 3 times at days −35, −21 and −7 before colitis induction on Day 0. Chronic colitis was induced via DSS-containing water given for 5 days followed by 5 days of normal drinking water for 3 cycles, resulting in a 30-day model. A shorter, acute DSS-induced colitis model consisting of one cycle of colitis was achieved by giving 5 days of 2% DSS in water followed by 5 days of normal drinking water for a total of 10 days and was also examined in a preventative immunization scenario. Mice were weighed daily and evaluated for the IACUC approved humane endpoint of >30% weight loss as DSS mice regain weight quickly after DSS administration ceases. They were also monitored for occult blood with Hemoccult tape and developer (Beckman Coulter, 63202) and fecal consistency. Disease activity index (DAI) scores were a combination of weight loss (≥100%=0, 90-99%=1, 80-89%=2, […]), occult blood (no blood=0, blood=3), and fecal consistency (hard=0, soft=1, softer=2, runny=3), with a possible daily maximum score of 9. […] At the experimental endpoint, mice were euthanized, and colon lengths were measured from the base of the cecum to the rectum using digital calibrators. To determine immunization efficacy in a therapeutic colitis setting, colitis was first induced by administering one cycle of colitis achieved by 5 days of 2% DSS in water followed by 5 days of normal drinking water for a total of 10 days. Mice were monitored daily as described above until they on average regained their original body weight on day 20. At this point, i.p. immunizations were initiated and given three times over a 4-week period on days 20, 32, and 45, and colitis monitoring was reduced to twice weekly. An additional cycle of colitis was then induced on day 51 via 5 days of 2% DSS in water followed by 5 days of normal drinking water for a total of 10 days with daily monitoring. The entire therapeutic model ended on day 60, and colon lengths were measured as described above.
Spleen Bacteria Measurements. At the conclusion of the DSS experiments, spleens were harvested and weighed followed by homogenization in 500 μL of 0.1% Triton X-100 in sterile 1×PBS using a Tissue Tearer handheld homogenizer (Biospec Products). 25 μL of homogenate solution was then spread on each quarter of culture plates consisting of tryptic soy broth No. 2 (Sigma, 51228) and Difco agar, granulated (BD Biosciences, 214530) in dilutions from 100 to 103. After a 48 hr incubation at 37° C., colony forming units (CFUs) were counted and converted to CFU/g of spleen tissue via the equations: […]
Colon IL-10 Quantification. At the conclusion of some DSS experiments, one half of the harvested mouse colons were flushed with PBS to remove fecal matter and flash frozen in liquid nitrogen. Later, colons were thawed on ice, weighed, and homogenized in 2 μL/mg of Tissue Extraction Reagent I (Thermo Fisher, FNN0071) with a protease inhibitor tablet (Thermo Fisher, A32955) using a Navy Bead Lysis Kit (Next Advance, NAVYE1). The amount of IL-10 in colon homogenate supernatants was then measured using an IL-10 mouse ELISA kit (Invitrogen, 88-7105-22) in accordance with the manufacturer's protocol.

[1] = Zeta potential of nanofibers; format: physicochemical; details: 1 mM conjugate coassembled with 1 mM Q11; 0.2 mM in 1×PBS, 25° C.
Procedure: Zeta Potential. Nanofibers were diluted to 0.2 mM in 1×PBS and zeta potential measurements were conducted at 25° C. using an Anton Paar Litesizer 500.

Row | Substance | occludin levels in colon after immunization (occludin) | ZO-1 levels in colon after immunization (ZO-1) | colon lengths (C57BL/6 mice; both sexes, vs CpG-immunized mice and DSS disease controls) | serum anti-PC IgM, female mice (C57BL/6 mice; female) | spleen colony forming units (CFUs), female mice (C57BL/6 mice; female) | colon IL-10 levels, male mice (C57BL/6 mice; male) | serum anti-PC IgM, male mice (C57BL/6 mice; male) | spleen CFUs / bacterial spread, male mice (C57BL/6 mice; male) | protective efficacy / disease metrics, female mice (C57BL/6 mice; one cycle 2% DSS, 10 days, female) | weight loss and disease activity index scores, male mice (C57BL/6 mice; one cycle 2% DSS, male) | zeta potential (surface charge) of nanofibers [1]
1 | (C11H22NO6P)n-CCCCSGSG-QQKFQFQFEQQ-NH2 (CCCCSGSGQQKFQFQFEQQ-NH2; not fully specified; cysteine pairing not given here; also: phosphorylcholine groups (C11H22NO6P) n=1-4, attachment not placed) [PCM-Q11, linear multi-PC conjugate] | not significantly different | not significantly different | increased colon lengths | undetectable | dramatically decreased spleen colony forming units (CFUs) | not significantly reduced compared to healthy controls | significantly less anti-PC IgM than PCM-Q11/CpG | This trend was also present, though not statistically significant | significant protective efficacy | improved weight loss and disease activity index scores | 
2 | C11H22NO6P-CSGSG-QQKFQFQFEQQ-NH2 (C(C11H22NO6P)SGSGQQKFQFQFEQQ-NH2) [PC-Q11, phosphodiester PC-Q11] |  |  |  |  |  |  |  |  |  |  | neutrally charged
